ChEMBL document CHEMBL1201862, “PubChem BioAssay data set” (2004)
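Compound exposure: 48 hours, 5 concentrations, 96-well plates. At the GI50, growth is halved.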 Active and inactive are the calls of the source. Rule as the data show it: active = GI50 up to about 1.1 µM and inactive = higher.

Assays:
Assay in all cases: DTP human tumour cell line panel, 48 h
[1] = test system: A549
[2] = test system: ACHN
[3] = test system: BT-549
[4] = test system: CCRF-CEM
[5] = test system: COLO 205
[6] = test system: EKVX
[7] = test system: HCC 2998
[8] = test system: HCT-116
[9] = test system: HL-60
[10] = test system: IGROV-1
[11] = test system: Malme-3M
[12] = test system: NCI/ADR-RES
[13] = test system: OVCAR-5
[14] = test system: PC-3
[15] = test system: RXF 393
[16] = test system: SF-295
[17] = test system: SK-MEL-28
[18] = test system: SNB-75
[19] = test system: SW-620
[20] = test system: T47D

In the case of `COC(=O)C(Cc1c[nH]c2ccccc12)NC1=Nc2ccncc2S(=O)(=O)N1c1ccccc1` (stereo not drawn), the GI50 [1] is reported as 59 µM (inactive), the GI50 [2] is reported as 29.9 µM (inactive) and the GI50 [3] is reported as 35 µM (inactive). The GI50 [4] was 14.1 µM (inactive), the GI50 [5] was 17.6 µM (inactive) and the GI50 [6] was > 100 µM (inactive). The GI50 [7] was 27.5 µM (inactive), the GI50 [8] was 27.1 µM (inactive) and the GI50 [9] was 0.199 µM (active). For the same molecule, the GI50 [10] was 31 µM (inactive), the GI50 [11] was 19 µM (inactive) and the GI50 [12] was 33 µM (inactive). The GI50 [13] was 41 µM (inactive), the GI50 [14] was 29.1 µM (inactive) and the GI50 [15] was 19.9 µM (inactive). For the same molecule, the GI50 [16] was 52.1 µM (inactive), the GI50 [17] was 28.4 µM (inactive) and the GI50 [18] was 20.7 µM (inactive). The GI50 [19] was 28.1 µM (inactive) and the GI50 [20] was 20.5 µM (inactive).
`C=CCCCCCCCCCOC1C=CC(O)C(CO)O1` (stereo not drawn) was tested, and the GI50 [1] was 42.4 µM (inactive), the GI50 [2] was 46.5 µM (inactive) and the GI50 [3] was 48.4 µM (inactive). The GI50 [5] was 37.1 µM (inactive), the GI50 [6] was 39.2 µM (inactive) and the GI50 [7] was 41.1 µM (inactive). For the same molecule, the GI50 [8] was 46.3 µM (inactive), the GI50 [9] was 21.9 µM (inactive) and the GI50 [10] was 16.6 µM (inactive). The GI50 [11] was 28.1 µM (inactive), the GI50 [12] was 43.6 µM (inactive) and the GI50 [13] was 68.4 µM (inactive). The GI50 [14] was 26.5 µM (inactive), the GI50 [15] was 95.9 µM (inactive) and the GI50 [16] was 66.2 µM (inactive). For the same molecule, the GI50 [17] was 41.6 µM (inactive), the GI50 [18] was 51.2 µM (inactive) and the GI50 [19] was 43.5 µM (inactive). For the same molecule, the GI50 [20] was 52.2 µM (inactive).
`O=C(O)Cc1cccc2c1OC(c1ccccc1)C(Cl)(C(=O)c1ccccc1)C2=O` (stereo not drawn) was tested, and the GI50 [1] was 29.4 µM (inactive), the GI50 [2] was 14 µM (inactive) and the GI50 [3] was 43 µM (inactive). The GI50 [4] was 3.21 µM (inactive), the GI50 [5] was > 10 µM (inactive) and the GI50 [6] was 21.5 µM (inactive). For the same molecule, the GI50 [7] was 13.2 µM (inactive), the GI50 [8] was 15.1 µM (inactive) and the GI50 [9] was 11.9 µM (inactive). The GI50 [10] was 15.6 µM (inactive), the GI50 [11] was 18.2 µM (inactive) and the GI50 [12] was 22.2 µM (inactive). The GI50 [14] was 11.4 µM (inactive), the GI50 [15] was > 10 µM (inactive) and the GI50 [16] was 23 µM (inactive). The GI50 [17] was 15.6 µM (inactive), the GI50 [18] was 19.1 µM (inactive) and the GI50 [19] was 9.33 µM (inactive). The GI50 [20] was 16.9 µM (inactive).
For `O=C1/C(=C/c2ccc(Cl)cc2)Oc2ccccc21`, the GI50 [1] was 18.7 µM (inactive), the GI50 [2] was 20.4 µM (inactive) and the GI50 [3] was 25.6 µM (inactive). The GI50 [4] was > 100 µM (inactive), the GI50 [5] was 47.1 µM (inactive) and the GI50 [6] was 22.1 µM (inactive). The GI50 [7] was > 100 µM (inactive), the GI50 [8] was 59.4 µM (inactive) and the GI50 [9] was > 100 µM (inactive). For the same molecule, the GI50 [10] was > 10 µM (inactive), the GI50 [12] was > 10 µM (inactive) and the GI50 [14] was > 10 µM (inactive). The GI50 [15] was 21.4 µM (inactive), the GI50 [16] was 56.5 µM (inactive) and the GI50 [17] was > 100 µM (inactive). The GI50 [18] was 32.7 µM (inactive), the GI50 [19] was > 100 µM (inactive) and the GI50 [20] was 27.4 µM (inactive).
In the case of `CC(=O)OC(OC(C)=O)c1ccc2ccc3cccc4ccc1c2c34`, the GI50 [1] is reported as > 100 µM (inactive), the GI50 [2] is reported as 26.2 µM (inactive) and the GI50 [3] is reported as 25.1 µM (inactive). For the same molecule, the GI50 [4] was 42.6 µM (inactive), the GI50 [5] was 25.1 µM (inactive) and the GI50 [6] was 27.4 µM (inactive). For the same molecule, the GI50 [7] was 11.3 µM (inactive), the GI50 [8] was 22.4 µM (inactive) and the GI50 [9] was 9.38 µM (inactive). For the same molecule, the GI50 [10] was 21.7 µM (inactive), the GI50 [11] was 12.3 µM (inactive) and the GI50 [12] was 31.3 µM (inactive). For the same molecule, the GI50 [13] was 20 µM (inactive), the GI50 [14] was 28.6 µM (inactive) and the GI50 [15] was 11.3 µM (inactive). For the same molecule, the GI50 [16] was 18.7 µM (inactive), the GI50 [18] was 15.7 µM (inactive) and the GI50 [20] was 22.9 µM (inactive).
With `CC1=C(C(=O)NCCc2ccccc2)CC(C(=O)NCCc2ccccc2)=C(C)N1` the GI50 [1] was > 100 µM (inactive), the GI50 [2] was 55.3 µM (inactive) and the GI50 [3] was > 100 µM (inactive). For the same molecule, the GI50 [4] was 27.8 µM (inactive), the GI50 [5] was > 100 µM (inactive) and the GI50 [6] was 65.3 µM (inactive). For the same molecule, the GI50 [7] was > 100 µM (inactive), the GI50 [8] was 74.5 µM (inactive) and the GI50 [9] was 31.7 µM (inactive). The GI50 [10] was 54.8 µM (inactive), the GI50 [12] was > 100 µM (inactive) and the GI50 [13] was > 100 µM (inactive). For the same molecule, the GI50 [14] was 37.2 µM (inactive), the GI50 [15] was 35.8 µM (inactive) and the GI50 [16] was > 100 µM (inactive). The GI50 [18] was 14.3 µM (inactive), the GI50 [19] was > 100 µM (inactive) and the GI50 [20] was 64.6 µM (inactive).
`O=C1COCCN1C(=O)c1ccccc1Cl` was tested, and the GI50 [1] was > 100 µM (inactive), the GI50 [2] was > 100 µM (inactive) and the GI50 [3] was > 100 µM (inactive). The GI50 [4] was > 100 µM (inactive), the GI50 [6] was > 100 µM (inactive) and the GI50 [7] was > 100 µM (inactive). The GI50 [8] was > 100 µM (inactive), the GI50 [9] was > 100 µM (inactive) and the GI50 [10] was > 100 µM (inactive). For the same molecule, the GI50 [11] was > 100 µM (inactive), the GI50 [12] was > 100 µM (inactive) and the GI50 [13] was > 100 µM (inactive). For the same molecule, the GI50 [14] was > 100 µM (inactive), the GI50 [15] was > 100 µM (inactive) and the GI50 [16] was > 100 µM (inactive). For the same molecule, the GI50 [17] was > 100 µM (inactive), the GI50 [18] was > 100 µM (inactive) and the GI50 [19] was > 100 µM (inactive). For the same molecule, the GI50 [20] was > 100 µM (inactive).
`CO/C=C(/C(=O)OC)c1ccccc1Oc1c(F)c(F)c(F)c(F)c1F` was tested, and the GI50 [1] was 34.8 µM (inactive), the GI50 [2] was 50.4 µM (inactive) and the GI50 [3] was > 100 µM (inactive). The GI50 [4] was 30.1 µM (inactive), the GI50 [5] was 17.6 µM (inactive) and the GI50 [6] was 32.7 µM (inactive). For the same molecule, the GI50 [7] was 36.7 µM (inactive), the GI50 [8] was 22.9 µM (inactive) and the GI50 [9] was < 0.01 µM (active). The GI50 [10] was 29.3 µM (inactive), the GI50 [12] was 40.7 µM (inactive) and the GI50 [13] was > 100 µM (inactive). The GI50 [14] was 34.8 µM (inactive), the GI50 [15] was 20.7 µM (inactive) and the GI50 [16] was 54.5 µM (inactive). The GI50 [17] was 55.7 µM (inactive) and the GI50 [20] was 21.2 µM (inactive).
